# Assay results: PMC6105673 (Nature Communications, 2018)
# Biological target: T1, pVHL-elongin B-elongin C (VBC) complex (Homo sapiens, UniProt P40337+Q15369+Q15370)
# T1 construct: a construct encoding N-terminal GST-tagged pVHL19 (54–213); GST (N, cleaved yes); made in house; host or cells: BL21(DE3) E. coli
# Assay: Biolayer interferometry kinetic analysis of VBC complex binding to biotinylated HIF-2α peptides
# Conditions: for ka (association rate): purified VBC; for binding to VBC compared to WT (in words): HIF-2αOH peptides (523–541)
# Protocol: Absorbance was read at 450 nm. […] The data were analyzed based on a 1:1 binding model using the BLItz Pro software with the fitted curves shown as gray lines. […] Values represent mean of three experiments conducted with independently purified protein ± SEM. * denotes uncharacterized band
# Multiple concentrations of purified VBC complex were diluted in kinetics buffer and allowed to associate with immobilized peptide over 120 s. Subsequently, the SA-BLI probe was immersed into kinetics buffer for 120 s to allow for dissociation. The data were analyzed, step corrected, reference corrected, and fit to a global 1:1 binding model. Kd, ka, and kd were calculated using the BLItz Pro software.
# [1] = BLItz biolayer interferometry, peptide (523–541) immobilized, global 1:1 model, mean of three experiments ± SEM
# T1 sequence (P40337 54-213): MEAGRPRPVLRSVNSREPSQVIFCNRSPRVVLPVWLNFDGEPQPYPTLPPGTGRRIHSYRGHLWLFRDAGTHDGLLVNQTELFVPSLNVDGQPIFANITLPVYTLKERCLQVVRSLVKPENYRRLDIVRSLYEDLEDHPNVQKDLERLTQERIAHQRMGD
# T1 sequence (Q15370 whole entry partner): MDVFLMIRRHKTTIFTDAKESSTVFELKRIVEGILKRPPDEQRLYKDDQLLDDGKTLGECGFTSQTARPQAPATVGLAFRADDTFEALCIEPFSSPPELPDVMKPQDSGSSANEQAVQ
# T1 sequence (Q15369 17-112 partner limits assumed): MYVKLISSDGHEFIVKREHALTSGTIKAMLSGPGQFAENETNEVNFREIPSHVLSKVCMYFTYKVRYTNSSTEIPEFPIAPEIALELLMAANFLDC
SMILES,ka (association rate) [1],binding to VBC compared to WT (in words) (BLI),"ka (association rate) (BLI, 1:1 model) [M/s]"
CC[C@H](C)[C@H](NC(=O)[C@H](Cc1ccc(O)cc1)NC(=O)[C@@H]1C[C@@H](O)CN1C(=O)[C@H](C)NC(=O)[C@H](CC(C)C)NC(=O)[C@@H](NC(=O)[C@H](CCC(=O)O)NC(=O)[C@H](CC(C)C)NC(=O)[C@H](CC(=O)O)NC(=O)[C@H](CC(C)C)NC(=O)[C@H](CCC(=O)O)NC(=O)CCCC[C@@H]1SC[C@@H]2NC(=O)N[C@@H]21)[C@@H](C)O)C(=O)N1CCC[C@H]1C(=O)N[C@@H](CCSC)C(=O)N[C@@H](CC(=O)O)C(=O)NCC(=O)N[C@@H](CCC(=O)O)C(=O)N[C@@H](CC(=O)O)C(=O)N[C@@H](CC(C)C)C(=O)N[C@@H](CCC(N)=O)C(N)=O [HIF-2αOH (F540L)],3.1 ± 0.3 x10^4 Ms^−1,,31000
CC[C@H](C)[C@H](NC(=O)[C@H](Cc1ccc(O)cc1)NC(=O)[C@@H]1C[C@@H](O)CN1C(=O)[C@H](C)NC(=O)[C@H](CC(C)C)NC(=O)[C@@H](NC(=O)[C@H](CCC(=O)O)NC(=O)[C@H](CC(C)C)NC(=O)[C@H](CC(=O)O)NC(=O)[C@H](CC(C)C)NC(=O)[C@H](CCC(=O)O)NC(=O)CCCC[C@@H]1SC[C@@H]2NC(=O)N[C@@H]21)[C@@H](C)O)C(=O)N1CCC[C@H]1C(=O)N[C@@H](CCSC)C(=O)N[C@@H](CC(=O)O)C(=O)N[C@@H](CCCNC(=N)N)C(=O)N[C@@H](CCC(=O)O)C(=O)N[C@@H](CC(=O)O)C(=O)N[C@@H](Cc1ccccc1)C(=O)N[C@@H](CCC(N)=O)C(N)=O [HIF-2αOH (G537R)],3.0 ± 0.2 x10^4 Ms^−1,,30000
CC[C@H](C)[C@H](NC(=O)[C@@H]1CCCN1C(=O)[C@@H](NC(=O)[C@H](Cc1ccc(O)cc1)NC(=O)[C@@H]1C[C@@H](O)CN1C(=O)[C@H](C)NC(=O)[C@H](CC(C)C)NC(=O)[C@@H](NC(=O)[C@H](CCC(=O)O)NC(=O)[C@H](CC(C)C)NC(=O)[C@H](CC(=O)O)NC(=O)[C@H](CC(C)C)NC(=O)[C@H](CCC(=O)O)NC(=O)CCCC[C@@H]1SC[C@@H]2NC(=O)N[C@@H]21)[C@@H](C)O)[C@@H](C)CC)C(=O)N[C@@H](CC(=O)O)C(=O)NCC(=O)N[C@@H](CCC(=O)O)C(=O)N[C@@H](CC(=O)O)C(=O)N[C@@H](Cc1ccccc1)C(=O)N[C@@H](CCC(N)=O)C(N)=O [HIF-2αOH (M535I)],3.1 ± 0.2 x10^4 Ms^−1,little defect,
CC[C@H](C)[C@H](NC(=O)[C@H](CS)NC(=O)[C@@H]1C[C@@H](O)CN1C(=O)[C@H](C)NC(=O)[C@H](CC(C)C)NC(=O)[C@@H](NC(=O)[C@H](CCC(=O)O)NC(=O)[C@H](CC(C)C)NC(=O)[C@H](CC(=O)O)NC(=O)[C@H](CC(C)C)NC(=O)[C@H](CCC(=O)O)NC(=O)CCCC[C@@H]1SC[C@@H]2NC(=O)N[C@@H]21)[C@@H](C)O)C(=O)N1CCC[C@H]1C(=O)N[C@@H](CCSC)C(=O)N[C@@H](CC(=O)O)C(=O)NCC(=O)N[C@@H](CCC(=O)O)C(=O)N[C@@H](CC(=O)O)C(=O)N[C@@H](Cc1ccccc1)C(=O)N[C@@H](CCC(N)=O)C(N)=O [HIF-2αOH (Y532C)],4.9 ± 0.2 x10^4 Ms^−1,,
CC[C@H](C)[C@H](NC(=O)[C@H](Cc1ccc(O)cc1)NC(=O)[C@@H]1C[C@@H](O)CN1C(=O)[C@H](C)NC(=O)[C@H](CC(C)C)NC(=O)[C@@H](NC(=O)[C@H](CCC(=O)O)NC(=O)[C@H](CC(C)C)NC(=O)[C@H](CC(=O)O)NC(=O)[C@H](CC(C)C)NC(=O)[C@@H](N)CCC(=O)O)[C@@H](C)O)C(=O)N1CCC[C@H]1C(=O)N[C@@H](CCSC)C(=O)N[C@@H](CC(=O)O)C(=O)NCC(=O)N[C@@H](CCC(=O)O)C(=O)N[C@@H](CC(=O)O)C(=O)N[C@@H](Cc1ccccc1)C(=O)N[C@@H](CCC(N)=O)C(N)=O [HIF-2αOH (wild-type)],4.1 ± 0.4 x10^4 Ms^−1,,41000

# Now from value to compound:
ka (association rate) [1],binding to VBC compared to WT (in words) (BLI),"ka (association rate) (BLI, 1:1 model) [M/s]",SMILES
3.4 ± 0.3 x10^4 Ms^−1,,,CC[C@H](C)[C@H](NC(=O)[C@H](Cc1ccc(O)cc1)NC(=O)[C@@H]1C[C@@H](O)CN1C(=O)[C@@H](NC(=O)[C@H](CC(C)C)NC(=O)[C@@H](NC(=O)[C@H](CCC(=O)O)NC(=O)[C@H](CC(C)C)NC(=O)[C@H](CC(=O)O)NC(=O)[C@H](CC(C)C)NC(=O)[C@H](CCC(=O)O)NC(=O)CCCC[C@@H]1SC[C@@H]2NC(=O)N[C@@H]21)[C@@H](C)O)[C@@H](C)O)C(=O)N1CCC[C@H]1C(=O)N[C@@H](CCSC)C(=O)N[C@@H](CC(=O)O)C(=O)NCC(=O)N[C@@H](CCC(=O)O)C(=O)N[C@@H](CC(=O)O)C(=O)N[C@@H](Cc1ccccc1)C(=O)N[C@@H](CCC(N)=O)C(N)=O [HIF-2αOH (A530T)]
2.7 ± 0.2 x10^4 Ms^−1,,,CC[C@H](C)[C@H](NC(=O)[C@H](Cc1ccc(O)cc1)NC(=O)[C@@H]1C[C@@H](O)CN1C(=O)[C@@H](NC(=O)[C@H](CC(C)C)NC(=O)[C@@H](NC(=O)[C@H](CCC(=O)O)NC(=O)[C@H](CC(C)C)NC(=O)[C@H](CC(=O)O)NC(=O)[C@H](CC(C)C)NC(=O)[C@H](CCC(=O)O)NC(=O)CCCC[C@@H]1SC[C@@H]2NC(=O)N[C@@H]21)[C@@H](C)O)C(C)C)C(=O)N1CCC[C@H]1C(=O)N[C@@H](CCSC)C(=O)N[C@@H](CC(=O)O)C(=O)NCC(=O)N[C@@H](CCC(=O)O)C(=O)N[C@@H](CC(=O)O)C(=O)N[C@@H](Cc1ccccc1)C(=O)N[C@@H](CCC(N)=O)C(N)=O [HIF-2αOH (A530V)]
3.6 ± 0.05 x10^4 Ms^−1,little defect,,CC[C@H](C)[C@H](NC(=O)[C@H](Cc1ccc(O)cc1)NC(=O)[C@@H]1C[C@@H](O)CN1C(=O)[C@H](C)NC(=O)[C@H](CC(C)C)NC(=O)[C@@H](NC(=O)[C@H](CCC(=O)O)NC(=O)[C@H](CC(C)C)NC(=O)[C@H](CC(=O)O)NC(=O)[C@H](CC(C)C)NC(=O)[C@H](CCC(=O)O)NC(=O)CCCC[C@@H]1SC[C@@H]2NC(=O)N[C@@H]21)[C@@H](C)O)C(=O)N1CCC[C@H]1C(=O)N[C@@H](CCSC)C(=O)N[C@@H](CC(=O)O)C(=O)NCC(=O)N[C@@H](CCC(=O)O)C(=O)N[C@@H](CCC(=O)O)C(=O)N[C@@H](Cc1ccccc1)C(=O)N[C@@H](CCC(N)=O)C(N)=O [HIF-2αOH (D539E)]
